Laboratory results published in the supplement of paper PMC10307832.

Tests used:
Experiment in all cases: relative viability (nuclei count vs DMSO), 5 days (fraction); higher = more cells survive
[1] = test system: 201T
Outline: (§1)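 A single step with final 0.05% Triton X-100, 1% formaldehyde and 1 ug/ml Hoechst fixed the cells and stained nuclei 5 days after treatment. Lung cancer cell lines in 1536-well plates had been treated by pin tool the day after seeding with one drug alone or a fixed anchor-drug dose plus five library-drug doses (not always all listed) in √10 steps, and nuclei were counted on 4× images. Relative viability is the ratio of nuclei in treated wells to nuclei in vehicle wells, taken as the median of duplicate plates.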

[2] = test system: A-427
Outline: as §1

[3] = test system: COR-L23
Outline: as §1

[4] = test system: H3255
Outline: as §1

[5] = test system: HCC-44
Outline: as §1

[6] = test system: LC-2-ad
Outline: as §1

[7] = test system: LCLC-103H
Outline: as §1

[8] = test system: LCLC-97TM1
Outline: as §1

[9] = test system: LK-2
Outline: as §1

[10] = test system: LU99A
Outline: as §1

[11] = test system: NCI-H1563
Outline: as §1

[12] = test system: NCI-H1650
Outline: as §1

[13] = test system: NCI-H1793
Outline: as §1

[14] = test system: NCI-H2228
Outline: as §1

[15] = test system: NCI-H2347
Outline: as §1

[16] = test system: NCI-H23
Outline: as §1

[17] = test system: NCI-H460
Outline: as §1

[18] = test system: NCI-H596
Outline: as §1

[19] = test system: NCI-H727
Outline: as §1

[20] = test system: PC-14
Outline: as §1

[21] = test system: PC-3 [JPC-3]
Outline: as §1

[22] = test system: SW 1573
Outline: as §1

In the case of `COc1nc(C)cnc1NS(=O)(=O)c1cccnc1-c1ccc(-c2nnco2)cc1` [Zibotentan] + CS(=O)(=O)N1CCN(Cc2cc3nc(-c4cccc5[nH]ncc45)nc(N4CCOCC4)c3s2)CC1 [Pictilisib] (partner 1 µM), the relative viability ([1]; first compound 0.08 µM) is reported as 0.725, the relative viability ([1]; first compound 0.253 µM) is reported as 0.599 and the relative viability ([1]; first compound 0.8 µM) is reported as 0.628. It also gave a relative viability ([1]; first compound 2.53 µM) of 0.711, a relative viability ([2]; first compound 0.08 µM) of 0.909 and a relative viability ([2]; first compound 0.253 µM) of 0.733. For the same compound, the relative viability ([2]; first compound 0.8 µM) was 0.68, the relative viability ([2]; first compound 2.53 µM) was 0.751 and the relative viability ([3]; first compound 0.08 µM) was 0.728. The relative viability ([3]; first compound 0.253 µM) was 0.662, the relative viability ([3]; first compound 0.8 µM) was 0.757 and the relative viability ([3]; first compound 2.53 µM) was 0.921. For the same compound, the relative viability ([4]; first compound 0.08 µM) was 0.467, the relative viability ([4]; first compound 0.253 µM) was 0.485 and the relative viability ([4]; first compound 0.8 µM) was 0.467. It also gave a relative viability ([4]; first compound 2.53 µM) of 0.549, a relative viability ([5]; first compound 0.08 µM) of 0.591 and a relative viability ([5]; first compound 0.253 µM) of 0.625. For the same compound, the relative viability ([5]; first compound 0.8 µM) was 0.607, the relative viability ([5]; first compound 2.53 µM) was 0.784 and the relative viability ([6]; first compound 0.08 µM) was 0.48. The relative viability ([6]; first compound 0.253 µM) was 0.406, the relative viability ([6]; first compound 0.8 µM) was 0.527 and the relative viability ([6]; first compound 2.53 µM) was 0.435. The relative viability ([7]; first compound 0.08 µM) was 0.681, the relative viability ([7]; first compound 0.253 µM) was 0.558 and the relative viability ([7]; first compound 0.8 µM) was 0.55. It also gave a relative viability ([7]; first compound 2.53 µM) of 0.608, a relative viability ([8]; first compound 0.08 µM) of 0.214 and a relative viability ([8]; first compound 0.253 µM) of 0.167. It also gave a relative viability ([8]; first compound 0.8 µM) of 0.176, a relative viability ([8]; first compound 2.53 µM) of 0.176 and a relative viability ([9]; first compound 0.08 µM) of 0.542. The relative viability ([9]; first compound 0.253 µM) was 0.471, the relative viability ([9]; first compound 0.8 µM) was 0.55 and the relative viability ([9]; first compound 2.53 µM) was 0.603. The relative viability ([10]; first compound 0.08 µM) was 0.362, the relative viability ([10]; first compound 0.253 µM) was 0.314 and the relative viability ([10]; first compound 0.8 µM) was 0.343. It also gave a relative viability ([10]; first compound 2.53 µM) of 0.371, a relative viability ([11]; first compound 0.08 µM) of 0.635 and a relative viability ([11]; first compound 0.253 µM) of 0.594. The relative viability ([11]; first compound 0.8 µM) was 0.652, the relative viability ([11]; first compound 2.53 µM) was 0.639 and the relative viability ([12]; first compound 0.08 µM) was 0.675. It also gave a relative viability ([12]; first compound 0.8 µM) of 0.638, a relative viability ([12]; first compound 2.53 µM) of 0.658 and a relative viability ([13]; first compound 0.08 µM) of 0.429. The relative viability ([13]; first compound 0.253 µM) was 0.306, the relative viability ([13]; first compound 0.8 µM) was 0.391 and the relative viability ([13]; first compound 2.53 µM) was 0.345. The relative viability ([14]; first compound 0.08 µM) was 0.45, the relative viability ([14]; first compound 0.253 µM) was 0.438 and the relative viability ([14]; first compound 0.8 µM) was 0.355. For the same compound, the relative viability ([14]; first compound 2.53 µM) was 0.317, the relative viability ([15]; first compound 0.08 µM) was 0.601 and the relative viability ([15]; first compound 0.253 µM) was 0.547. For the same compound, the relative viability ([15]; first compound 0.8 µM) was 0.621, the relative viability ([15]; first compound 2.53 µM) was 0.769 and the relative viability ([16]; first compound 0.08 µM) was 0.403. For the same compound, the relative viability ([16]; first compound 0.253 µM) was 0.462, the relative viability ([16]; first compound 0.8 µM) was 0.556 and the relative viability ([16]; first compound 2.53 µM) was 0.58. For the same compound, the relative viability ([17]; first compound 0.08 µM) was 0.351, the relative viability ([17]; first compound 0.253 µM) was 0.336 and the relative viability ([17]; first compound 0.8 µM) was 0.327. The relative viability ([17]; first compound 2.53 µM) was 0.38, the relative viability ([18]; first compound 0.08 µM) was 0.446 and the relative viability ([18]; first compound 0.253 µM) was 0.417. For the same compound, the relative viability ([18]; first compound 0.8 µM) was 0.385, the relative viability ([18]; first compound 2.53 µM) was 0.428 and the relative viability ([19]; first compound 0.08 µM) was 0.567. For the same compound, the relative viability ([19]; first compound 0.253 µM) was 0.38, the relative viability ([19]; first compound 0.8 µM) was 0.395 and the relative viability ([19]; first compound 2.53 µM) was 0.483. For the same compound, the relative viability ([20]; first compound 0.08 µM) was 0.91, the relative viability ([20]; first compound 0.253 µM) was 0.8 and the relative viability ([20]; first compound 0.8 µM) was 0.793. It also gave a relative viability ([20]; first compound 2.53 µM) of 0.628, a relative viability ([21]; first compound 0.08 µM) of 0.756 and a relative viability ([21]; first compound 0.253 µM) of 0.717. It also gave a relative viability ([21]; first compound 0.8 µM) of 0.647, a relative viability ([21]; first compound 2.53 µM) of 0.781 and a relative viability ([22]; first compound 0.08 µM) of 0.53. The relative viability ([22]; first compound 0.253 µM) was 0.533, the relative viability ([22]; first compound 0.8 µM) was 0.557 and the relative viability ([22]; first compound 2.53 µM) was 0.478.
